Measurements as given in paper PMC8125408, “Polyoxazolines with a Vicinally Double-Bioactivated Terminus for Biomacromolecular Affinity Assessment” (Sensors (Basel, Switzerland), 2021).
Read-outs that look alike come from different tables or passages of the source.

How the values were obtained:
[1] = target: T1, Concanavalin A (ConA) (Canavalia ensiformis, UniProt P02866); conditions: PBS, 25 °C, four ConA concentrations 118 to […], no aff. = no affinity of the conjugate to the lectin could be determined
Description: SAW measurements were performed with apparatus from SAW Instruments GmbH, which included an autosampler and allowed for measuring of protein adsorption and KD value determination. Measurements were performed at 25 °C using PBS as a running buffer. For the immobilization of polymers containing a thioether group on the bare gold sensor chip surface 30 µL of polymers per lane (concentration: 10 µg·mL^−1 in PBS) were preincubated onto the sensor chip for 1 h with an external application mask. Remaining unspecific protein binding sites on the bare gold surface were saturated by the injection of 500 µM BSA. Purified recombinant ConA was used as an analyte at four concentrations, ranging from 118 to 944 nM. The flow rate for the acquisition of interaction data was set to 40 µL·min^−1 in all experiments. Association was measured for 300 s, then dissociation was initiated by perfusing the running buffer, and the dissociation phase was also monitored for 300 s. Regeneration of the chip surface was performed by injection of two 60 s pulses of 100 mM glycine (pH 2.5) at a flow rate of 100 µL·min^−1. Interaction data were analyzed using the FitMaster add-in (SAW Instruments GmbH) of Origin software version 8.5 (OriginLab Corporation), applying a simple Langmuir-type 1:1 interaction model. Association rate constant kon values and dissociation rates constant koff values were obtained by fitting data of individual experiments. Equilibrium binding KD values were deduced using the equation KD = koff/kon. […]
Following the preparation of the gold surface with the polymer conjugates and saturation with BSA, the main measurement can be performed by analyzing the binding affinity of the lectin to the functionalized surface. For this, a constant flow of a series of ConA dilutions with defined concentrations of ConA is injected on each channel and the phase change of surface acoustic waves, which are influenced by binding events, is monitored. […] After measuring four different ConA concentrations, the binding and dissociation curves are fitted and the KD value is calculated.

[2] = target: T1, Concanavalin A (ConA); conditions: HBS150T pH 7.4, 25 °C, ConA 118 to […], no aff. = no affinity could be determined
Description: Interactions between polymers and Concanavalin A (ConA) were measured by SPR using a […] ®4SPR system (Reichert Technologies). Measurements were performed at 25 °C using HBS150T (10 mM HEPES (pH 7.4), 150 mM NaCl, 3.4 mM EDTA, 0.005% (v/v) Tween 20) as running buffer. For the immobilization of polymers containing a thioether group on the bare gold sensor chip surface, the polymers were injected onto a sensor for 8 min at a flow rate of 10 µL/min to cause polymer coating to a final density of 1000 resonance units. Remaining unspecific protein binding sites on the bare gold surface were saturated by the injection of 500 µM BSA. Purified recombinant ConA was used as an analyte at four concentrations, ranging from 118 to 944 nM. The flowrate for the acquisition of interaction data was set to 25 µL·min^−1 in all experiments. Association was measured for 180 s, then dissociation was initiated by perfusing running buffer, and the dissociation phase was monitored for 300 s. Regeneration of the chip surface was performed by injecting two 60 s pulses of 100 mM glycine (pH 2.5) at a flow rate of 100 µL·min^−1. Interaction data were analyzed using the software TraceDrawer version 1.8.1 (Ridgeview Instruments AB, Uppsala, Sweden), applying a simple Langmuir-type 1:1 interaction model and using global fitting for the rate constants. Association rate constant kon values and dissociation rates constant koff values were obtained by fitting the data of individual experiments. Equilibrium binding KD values were deduced using the equation KD = koff/kon. All SPR experiments were performed in at least three independent experiments.
Preparing the samples is identical to SAW measurements. The SPR measuring channels were coated with polymer solution, and unoccupied gold surface was saturated with BSA.

CGGWYKYW-PMeOx20-SEt
no aff.: SAW KD ([1]; Lane 1) | SAW KD ([1]; Lane 2) | SAW KD ([1]; Lane 3) | SPR KD ([2]; Lane 1 (for III: repeat (1))) | SPR KD ([2]; Lane 2 (for III: repeat (1))) | SPR KD ([2]; Lane 3 (for III: repeat (1))) | SPR KD ([2]; Lane 4 (for III: repeat (1)))
